Laboratory results from US20100286028A1, “USE OF A PEPTIDE AS A THERAPEUTIC AGENT” (priority 2007, published 2010).
No end group written: not given here.

Assays:
HIV-1IIIB = assay: HIV-1 antiviral assay in CEM-SS cells; details: peptides 10 micrograms per ml; CEM-SS cells plus HIV-1IIIB; MTS readout 6 days post-infection
HCMV strain AD169 = assay: HCMV plaque formation assay in MRC-5 cells; details: peptides 10 micrograms per ml, 7-10 days
Streptococcus pneumoniae = Streptococcus pneumoniae assay; format: cell-based; details: 10 micrograms per ml; 5x10^5 CFU/mL; read visually; combination 0.95 mole peptide 1 and 1.05 mole peptide 2 and all other molar ratios from 1:100 to 100:1
[1] = test system: hepatitis B virus (HBV) ayw strain; assay: HBV experimental assay system (HepG2-2.2.15, TaqMan PCR of secreted HBV DNA); format: cell-based; details: 10 micrograms per ml, six days, HBV DNA by TaqMan PCR, combination 0.95 mole peptide 1 and 1.05 mole peptide 2
[2] = test system: Primary Human endothelial cells (HUVEC); assay: Endothelial cell migration assay; format: cell-based; details: 10 micrograms per ml, 22 hours, combination peptide 1:peptide 2 1.10 mole:0.90 mole
HUVEC = assay: Endothelial tube formation assay; format: cell-based, human; details: 10 micrograms per ml, 20 hours, average tubule length, combination peptide 1:peptide 2 1.10 mole:0.90 mole
Description: Positive control was vehicle only.

murine spleen cells = assay: Th1/Th2 cytokine profiling assay; format: cell-based, Balb/c mice; details: 10 micrograms per ml, Ovalbumin-restimulated spleen cells, 72 hours
Description: The Balb/c mice (originated in 1923, it is a popular strain and is used in many different research disciplines. Also classified as an inbred from the production of 20 or more successive brother-sister matings, the Balb/c mouse is albino and small in size) were immunized on Days 1, 15, and 29 with Ovalbumin (Ovalbumin is the main protein found in egg white, commonly used to stimulate an immunological reaction in test animals) in PBS (5 micrograms/injection). On day 50, spleens of the mice were harvested (3 weeks after last boost with Ovalbumin). […] Thereafter, additional Ovalbumin was added to the cells at 10 micrograms/ml for in vitro restimulation of the cells. 72 hours later, cell supernatants were harvested and assayed using the Becton Dickinson Mouse Th1/Th2 Cytokine CBA Kit. This kit can be used to measure Interleukin-2 (IL-2), Interleukin-4 (IL-4), Interleukin-5 (IL-5), Interferon-γ (IFN-γ), and Tumor Necrosis Factor-a (TNF-a) protein levels in a single sample.

[3] = combination 0.95 mole peptide 1 and 1.05 mole peptide 2

Compound | inhibition of HIV-1 activity on tested T-cells (HIV-1IIIB) | inhibition of HCMV plaque formation as compared to the virus control experiment (HCMV strain AD169) | inhibition of the growth of Streptococcus pneumoniae (Streptococcus pneumoniae) | inhibition of HBV replication as compared to the virus control infection [1] | inhibition of the migration of human endothelial cells [2] | increase of the tube formation of human endothelial cells (HUVEC) | production of IL-4 in murine spleen cells, suppressed by (murine spleen cells) | change of the production of IL-5 in murine spleen cells (murine spleen cells; [3]) | production of IFN-γ in murine spleen cells, induced by (murine spleen cells; [3]) | production of IL-2 in murine spleen cells, induced by (murine spleen cells; [3]) | production of TNF-alpha in murine spleen cells, induced by (murine spleen cells; [3]) | production of IL-4 in murine spleen cells, induced by (murine spleen cells; [3])
Cc1cn([C@H]2C[C@H](N=[N+]=[N-])[C@@H](CO)O2)c(=O)[nH]c1=O [AZT] | expected levels of antiviral activity |  |  |  |  |  |  |  |  |  |  | 
Nc1nc(O)c2ncn(COC(CO)CO)c2n1 [Ganciclovir, reference compound] |  | expected levels of antiviral activity |  |  |  |  |  |  |  |  |  | 
CC(C)(C)NC(=O)[C@@H]1CN(Cc2cccnc2)CCN1C[C@@H](O)C[C@@H](Cc1ccccc1)C(=O)N[C@H]1c2ccccc2C[C@H]1O [indinavir] | expected levels of antiviral activity |  |  |  |  |  |  |  |  |  |  | 
Cys-Tyr-Phe-Gln-Asn-Cys-Pro-Arg-Gly-NH2 (CYFQNCPRG-NH2; ends and bridges not checked) [Peptide 2] |  | did not inhibit | 100% | 26.3% | 5% | 4% | 59.6% | did not significantly change | did not significantly change | did not significantly change | 24.9% | 
PALPEDGGSGAFPPGHFKDPKRLY [Peptide 1] |  | did not inhibit | 100% | 24.3% | 17% | 2% |  | did not significantly change | 30.3% | 77.4% | 30.0% | 123.9%
